“Also recorded” adds a separate entry of the source.
What was measured:
[1] = mice, systemic delivery of ABX; cited from earlier work
H4 = test: Cell viability assay (PTX dose response, CellTiter Glo) in glioma cell lines; type: cell-based, human; conditions: H4 glioma cell line, PTX dose response curve
Protocol: GBM cells were seeded at a density of 5000 cells per well in a 96 well plate. One day after seeding, cells were checked for attachment and confluence (60-70%). […] 72 hours later cell viability was determined by CellTiter Glo (Promega).

[2] = system: H4 SSR3 KO and control cells; test: Microtubule polymerization, alpha-tubulin immunofluorescence in H4 cells; type: cell-based, human; conditions: PTX 0.5 μM, 48 h
Protocol: H4 SSR3 knockout and non-targeting control cells were grown on glass coverslips. […] The cells were then stained with α-tubulin and SSR3 antibodies at 1:100 dilution and the images were acquired on the Nikon A1 (C) confocal microscope. Microtubule bundles per cell cluster were counted for the analysis.

[3] = pharmacologic data and clinical investigations; cited from earlier work

CC(=O)O[C@H]1C(=O)[C@@]2(C)[C@H]([C@H](OC(=O)c3ccccc3)[C@]3(O)C[C@H](OC(=O)[C@H](O)[C@@H](NC(=O)c4ccccc4)c4ccccc4)C(C)=C1C3(C)C)[C@]1(OC(C)=O)CO[C@@H]1C[C@@H]2O [PTX, Paclitaxel]
enhancement of brain penetration of PTX by ultrasound therapy [1]: 3-5 fold
sensitivity to PTX among glioma cell lines (H4): most sensitive; also recorded: highest degree of sensitivity
effect on microtubule polymerization [2]: stabilization of microtubule polymerization
crossing of the BBB [3]: does not cross the BBB

— US20240294988A1, “METHODS OF DETERMINING RESPONSIVENESS TO CHEMOTHERAPEUTIC COMPOUNDS FOR CANCER THERAPY” (Northwestern University, priority 2021, published 2024)
